Measured values: patent US10800778B2 (Entasis Therapeutics Limited, priority 2016, dated 2020)

What was measured:
[1] = Stability in pH 7.4 buffer (no enzyme); format: physicochemical; conditions: read-out: T1/2 pH 7.4 Buffer
Protocol: (§1) The human intestinal S9 with the absence of PMSF, human liver S9, rat intestinal S9, and rat liver S9 preparations were obtained from Xenotech (Lenexa, Kans.). The 500-μL incubation solution contained 0.8 mg/mL of enzyme (or no enzyme for buffer stability), 10 μM of test compounds in 100 mM of HEPES buffer, pH 7.4. The hydrolysis reactions were conducted in a 1-mL glass insert (Analytical Sales, Pompton Plains, N.J.) in a shake water bath at 37° C. At 0, 2, 5, 10, 15, 30 and 60 min, the reaction was terminated by pipetting 50 μL incubate to a 96 DeepWell plate (Thermo Fisher Scientific, Rochester, N.Y.) containing 100 μL of acetonitrile with 250 ng/mL of Carbutamide (Sigma-Aldrich, St. Louis, Miss.) as the internal standard. The crashed solutions were then vortexed well followed by centrifuge at 4000 rpm for 15 min at 4° C. The extract was transferred to a new 96 DeepWell plate for LC-MS/MS analysis.
(§2) LC-MS/MS analysis was done using an AB Sciex QTrap 6500 mass spectrometer under positive ionization mode, coupled to a Schimadzu Nexera LC system.
(§3) A Waters Atlantis T3 (3 μm, 3.0×50 mm) column was used for separation. The mobile phase consisted 0.1% formic acid in water (A) and 0.1% formic acid in acetonitrile (B) with a flow rate set at 1.2 mL/min. For the prodrug analysis, the Multiple Reaction Monitoring (MRM) specific for each compound was set up so that both prodrug and its hydrolyzed active can be monitored simultaneously.
(§4) Half-lives listed are based on disappearance of starting ester.

[2] = Stability/conversion of esters in rat intestinal S9; format: in vitro ADME
Protocol: as §1, §2, §3, §4

[3] = Stability/conversion of esters in rat liver S9; format: in vitro ADME
Protocol: as §1, §2, §3, §4

[4] = Stability/conversion of esters in human intestinal S9; format: in vitro ADME
Protocol: as §1, §2, §3, §4

[5] = Stability/conversion of esters in human liver S9; format: in vitro ADME
Protocol: as §1, §2, §3, §4

[6] = s9, pH 7.4, read-out: T1/2 Rat Intestinal S9
[7] = s9, pH 7.4, read-out: T1/2 Rat Liver S9
[8] = s9, pH 7.4, read-out: T1/2 Human Intestinal S9
[9] = s9, pH 7.4, read-out: T1/2 Human Liver S9
[10] = intestinal S9, pH 7.4, read-out: T1/2 Rat Intestinal S9
[11] = liver S9, pH 7.4, read-out: T1/2 Rat Liver S9
[12] = intestinal S9 (without PMSF), pH 7.4, read-out: T1/2 Human Intestinal S9
[13] = liver S9, pH 7.4, read-out: T1/2 Human Liver S9

Compound | half-life at 10 μM ([1]; HEPES buffer without enzyme) [min] | half-life at 10 μM [2, 10] [min] | half-life at 10 μM [3, 11] [min] | half-life at 10 μM [4, 12] [min] | half-life at 10 μM [5, 13] [min] | half-life at 10 μM ([1]; buffer) [min] | half-life at 10 μM [2, 6] [min] | half-life at 10 μM [3, 7] [min] | half-life at 10 μM [4, 8] [min] | half-life at 10 μM [5, 9] [min]
CCOC(=O)[C@@H](F)ON1C(=O)N2C[C@H]1C=C(C)[C@H]2C(N)=O [Example 1, (R)-ethyl 2-((2S,5R)-2-carbamoyl-3-methyl-7-oxo-1,6-diazabicyclo[3.2.1]oct-3-en-6-yloxy)-2-fluoroacetate] | – | – | – | – | – | 41 | 39 | 4.4 | 38 | 6.5
CC[C@H](C)OC(=O)[C@@H](F)ON1C(=O)N2C[C@H]1C=C(C)[C@H]2C(N)=O [Example 20, (2R)-(S)-sec-butyl 2-(((2S,5R)-2-carbamoyl-3-methyl-7-oxo-1,6-diazabicyclo[3.2.1]oct-3-en-6-yl)oxy)-2-fluoroacetate] | – | – | – | – | – | 39 | 54 | 6.1 | 40 | 5.1
CCOC(=O)[C@@H](F)ON1C(=O)N2C[C@H]1C(C)=C[C@H]2C(N)=O [Example 31, (2R)-ethyl 2-(((2S,5R)-2-carbamoyl-4-methyl-7-oxo-1,6-diazabicyclo[3.2.1]oct-3-en-6-yl)oxy)-2-fluoroacetate] | – | – | – | – | – | 44 | 42 | 20 | 35 | 27
CCOC(=O)[C@H](F)ON1C(=O)N2C[C@H]1C(C)=C[C@H]2C(N)=O [Example 32, (2S)-ethyl 2-(((2S,5R)-2-carbamoyl-4-methyl-7-oxo-1,6-diazabicyclo[3.2.1]oct-3-en-6-yl)oxy)-2-fluoroacetate] | – | – | – | – | – | 22 | 18 | 2.4 | 6.9 | 2.4
CCOC(=O)CON1C(=O)N2C[C@H]1C=C(C)[C@H]2C(N)=O [Example 9, ethyl {[(2S,5R)-2-carbamoyl-3-methyl-7-oxo-1,6-diazabicyclo[3.2.1]oct-3-en-6-yl]oxy}acetate] | 18.3 | 27.3 | 1.4 | 17.8 | 2.9 | – | – | – | – | –
CCOC(=O)C(F)(F)ON1C(=O)N2C[C@H]1C=C(C)[C@H]2C(N)=O [Example 7, ethyl {[(2S,5R)-2-carbamoyl-3-methyl-7-oxo-1,6-diazabicyclo[3.2.1]oct-3-en-6-yl]oxy}(difluoro)acetate] | 3.9 | 3.9 | 0.5 | 2.4 | 0.8 | – | – | – | – | –
CCOC(=O)[C@H](F)ON1C(=O)N2C[C@H]1C=C(C)[C@H]2C(N)=O [Example 2, (S)-ethyl 2-((2S,5R)-2-carbamoyl-3-methyl-7-oxo-1,6-diazabicyclo[3.2.1]oct-3-en-6-yloxy)-2-fluoroacetate] | – | – | – | – | – | 29 | 24 | 1.4 | 21 | 1.9
CC1=C[C@@H]2CN(C(=O)N2O[C@H](F)C(=O)OC(C(C)C)C(C)C)[C@@H]1C(N)=O [Example 15, 2,4-dimethylpentan-3-yl (2R)-{[(2S,5R)-2-carbamoyl-3-methyl-7-oxo-1,6-diazabicyclo[3.2.1]oct-3-en-6-yl]oxy}(fluoro)ethanoate] | 98 | > 100 | 1.5 | > 100 | 12.4 | – | – | – | – | –
CC[C@@H](C)OC(=O)[C@@H](F)ON1C(=O)N2C[C@H]1C=C(C)[C@H]2C(N)=O [Example 22, (2R)-(R)-sec-butyl 2-(((2S,5R)-2-carbamoyl-3-methyl-7-oxo-1,6-diazabicyclo[3.2.1]oct-3-en-6-yl)oxy)-2-fluoroacetate] | – | – | – | – | – | 38 | 56 | 9.2 | 43 | 4.6
CC1=C[C@@H](C(N)=O)N2C[C@@H]1N(O[C@@H](F)C(=O)OC(C)C)C2=O [Example 36, (2S)-isopropyl 2-(((2S,5R)-2-carbamoyl-4-methyl-7-oxo-1,6-diazabicyclo[3.2.1]oct-3-en-6-yl)oxy)-2-fluoroacetate] | – | – | – | – | – | 91 | 68 | 3 | 36 | 8.5
COCCOC(=O)[C@@H](F)ON1C(=O)N2C[C@H]1C=C(C)[C@H]2C(N)=O [Example 18, 2-methoxyethyl (2R)-{[(2S,5R)-2-carbamoyl-3-methyl-7-oxo-1,6-diazabicyclo[3.2.1]oct-3-en-6-yl]oxy}(fluoro)ethanoate] | 18 | 16 | 7 | 15 | 9.2 | – | – | – | – | –
CC1=C[C@@H]2CN(C(=O)N2O[C@H](F)C(=O)OCc2ccccc2)[C@@H]1C(N)=O [Example 54, (2R)-benzyl 2-(((2S,5R)-2-carbamoyl-3-methyl-7-oxo-1,6-diazabicyclo[3.2.1]oct-3-en-6-yl)oxy)-2-fluoroacetate] | – | – | – | – | – | 22 | 19 | 0.9 | 5 | 1.9

More lines, main results first:

half-life at 10 μM ([1]; HEPES buffer without enzyme) [min] | half-life at 10 μM [2, 10] [min] | half-life at 10 μM [3, 11] [min] | half-life at 10 μM [4, 12] [min] | half-life at 10 μM [5, 13] [min] | Compound | half-life at 10 μM ([1]; buffer) [min] | half-life at 10 μM [2, 6] [min] | half-life at 10 μM [3, 7] [min] | half-life at 10 μM [4, 8] [min] | half-life at 10 μM [5, 9] [min]
4.8 | 4.2 | 2 | < 1 | 1.7 | CC1=C[C@@H]2CN(C(=O)N2O[C@H](F)C(=O)OC(C)OC(=O)OC(C)C)[C@@H]1C(N)=O (stereo partly drawn) [Example 53, 1-isopropoxycarbonyloxyethyl (2R)-2-[[(2S,5R)-2-carbamoyl-3-methyl-7-oxo-1,6-diazabicyclo[3.2.1]oct-3-en-6-yl]oxy]-2-fluoro-acetate] | – | – | – | – | –
62 | 50 | 3 | 42 | 6.1 | CCCOC(=O)[C@@H](F)ON1C(=O)N2C[C@H]1C=C(C)[C@H]2C(N)=O [Example 48, propyl (2R)-2-[[(2S,5R)-2-carbamoyl-3-methyl-7-oxo-1,6-diazabicyclo[3.2.1]oct-3-en-6-yl]oxy]-2-fluoro-acetate] | – | – | – | – | –
> 100 | 211 | 10.3 | 1480 | 57 | CC1=C[C@@H](C(N)=O)N2C[C@@H]1N(OCC(=O)OC(C)C)C2=O [Example 96, isopropyl 2-(((2S,5R)-2-carbamoyl-4-methyl-7-oxo-1,6-diazabicyclo[3.2.1]oct-3-en-6-yl)oxy)acetate] | – | – | – | – | –
1.7 | 1.3 | < 1 | < 1 | < 1 | CC1=C[C@@H]2CN(C(=O)N2O[C@H](F)C(=O)Oc2ccc3c(c2)CCC3)[C@@H]1C(N)=O [Example 65, indan-5-yl (2R)-2-[[(2S,5R)-2-carbamoyl-3-methyl-7-oxo-1,6-diazabicyclo[3.2.1]oct-3-en-6-yl]oxy]-2-fluoro-acetate] | – | – | – | – | –
161 | 397 | 11 | 193 | 24.8 | CCOC(=O)CON1C(=O)N2C[C@H]1C(C)=C[C@H]2C(N)=O [Example 92, ethyl 2-(((2S,5R)-2-carbamoyl-4-methyl-7-oxo-1,6-diazabicyclo[3.2.1]oct-3-en-6-yl)oxy)acetate] | – | – | – | – | –
26 | 21 | 3.8 | 20 | 3.5 | CCOC(=O)[C@H](F)ON1C(=O)N2C[C@H]1C=C(C)[C@H]2C(=O)NCO [Example 85, ethyl (2S)-2-fluoro-2-[[(2S,5R)-2-(hydroxymethylcarbamoyl)-3-methyl-7-oxo-1,6-diazabicyclo[3.2.1]oct-3-en-6-yl]oxy]acetate] | – | – | – | – | –
12 | 11 | 1.8 | 8.2 | 2.3 | C=CCOC(=O)[C@@H](F)ON1C(=O)N2C[C@H]1C=C(C)[C@H]2C(N)=O [Example 47, allyl (2R)-2-[[(2S,5R)-2-carbamoyl-3-methyl-7-oxo-1,6-diazabicyclo[3.2.1]oct-3-en-6-yl]oxy]-2-fluoro-acetate] | – | – | – | – | –
1.2 | 1.1 | < 1 | < 1 | < 1 | CC1=C[C@@H]2CN(C(=O)N2O[C@H](F)C(=O)OCOC(=O)C(C)(C)C)[C@@H]1C(N)=O [Example 64, [(2R)-2-[[(2S,5R)-2-carbamoyl-3-methyl-7-oxo-1,6-diazabicyclo[3.2.1]oct-3-en-6-yl]oxy]-2-fluoro-acetyl]oxymethyl 2,2-dimethylpropanoate] | – | – | – | – | –
